18 molecules from PubChem BioAssay AID192 (DTP/NCI, 2004) can be followed below.

The subject of this test is BDF1 mice, B16 melanoma ip, median survival T/C. Nature of the test: NCI In Vivo Anticancer Drug Screen. Data for tumor model B16 Melanoma (intraperitoneal) in B6D2F1 (BDF1) mice. Conditions: endpoint: median survival time, higher = longer survival. The essentials:
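Compounds were tested in mice carrying transplantable tumors. Survival or tumor size was recorded, and each value is the treated-group measurement (T) divided by that of the vehicle-treated control group (C).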

Where [1] appears, read: dose: 0.25 mg/kg/injection, schedule: Q01DX009 (ip), vehicle: Klucel (hydroxypropylcellulose) (HPC).
Setting [2] is: dose: 100.0 mg/kg/injection, schedule: Q01DX009 (ip), vehicle: Klucel (hydroxypropylcellulose) (HPC).
Setting [3] is: dose: 200.0 mg/kg/injection, schedule: Q01DX009 (ip), vehicle: Klucel (hydroxypropylcellulose) (HPC).
[4] abbreviates: dose: 400.0 mg/kg/injection, schedule: Q01DX009 (ip), vehicle: Klucel (hydroxypropylcellulose) (HPC).
Setting [5] is: dose: 50.0 mg/kg/injection, schedule: Q01DX009 (ip), vehicle: saline.
Setting [6] is: dose: 100.0 mg/kg/injection, schedule: Q01DX009 (ip), vehicle: saline.
The mark [7] stands for this setting: dose: 1.0 mg/kg/injection, schedule: Q01DX009 (ip), vehicle: saline.
[8] abbreviates: dose: 8.0 mg/kg/injection, schedule: Q01DX009 (ip), vehicle: saline.
[9] abbreviates: dose: 16.0 mg/kg/injection, schedule: Q01DX009 (ip), vehicle: saline.
The mark [10] stands for this setting: dose: 12.5 mg/kg/injection, schedule: Q01DX009 (ip), vehicle: saline with Tween-80.
The mark [11] stands for this setting: dose: 25.0 mg/kg/injection, schedule: Q01DX009 (ip), vehicle: saline with Tween-80.
Setting [12] is: dose: 50.0 mg/kg/injection, schedule: Q01DX009 (ip), vehicle: saline with Tween-80.

The structures appear in SMILES notation. Several values for one entry are separate records, joined by “and”; a condition that tells them apart may be missing. Equal entries are not always repeated. Toxic doses and inconclusive results are not listed.

In the case of `O=C(/C(=C\c1ccccc1)CBr)c1ccccc1`, the T/C reads like this: (dose: 0.12 mg/kg/injection, schedule: Q01DX009 (ip), vehicle: Klucel (hydroxypropylcellulose) (HPC)) 101 % of control; under setting [1], 88 % of control; (dose: 0.5 mg/kg/injection, schedule: Q01DX009 (ip), vehicle: Klucel (hydroxypropylcellulose) (HPC)) 88 % of control.

Consider `COc1cccc(C(=O)C(CCC#N)c2ccccc2)c1` (configuration not stated), for which the T/C was 103 % of control under setting [2], 96 % of control under setting [3] and 103 % of control under setting [4].

For `CCN(CC)CCN(C)CCN(CC)CC`, the T/C was 100 % of control under setting [5] and 94 % of control under setting [6].

For `CC(C)CCCCCCCCCCCCC(=O)NCC(=O)NC1C(O)C(O)C(Nc2ncnc3nc[nH]c23)OC1C(O)CO` (configuration not stated), the T/C runs as follows: under setting [1], 114 % of control; under setting [7], 151 % of control; (dose: 62.5 micrograms/kg/injection, schedule: Q01DX009 (ip), vehicle: saline) 98 % of control; (dose: 125.0 micrograms/kg/injection, schedule: Q01DX009 (ip), vehicle: saline) 98 % of control; (dose: 250.0 micrograms/kg/injection, schedule: Q01DX009 (ip), vehicle: saline) 98 % of control; (dose: 500.0 micrograms/kg/injection, schedule: Q01DX009 (ip), vehicle: saline) 107 % of control.

Turning to `CC(=O)OC(C)c1ccccc1` (configuration not stated), the T/C reads like this: under setting [2], 93 % of control; under setting [3], 96 % of control.

In the case of `Nc1nc([Se])c2ncn(C3OC(CO)C(O)C3O)c2n1` (configuration not stated), the T/C reads like this: under setting [7], 114 % of control; (dose: 2.0 mg/kg/injection, schedule: Q01DX009 (ip), vehicle: saline) 116 % of control and 117 % of control; (dose: 4.0 mg/kg/injection, schedule: Q01DX009 (ip), vehicle: saline) 114 % of control; under setting [8], 116 % of control and 117 % of control; under setting [9], 121 % of control.

Consider `COc1cc2c[n+](C)c3c4cc5c(cc4ccc3c2cc1OC)OCO5`, for which the T/C by setting is: (dose: 5.0 mg/kg/injection, schedule: Q01DX009 (ip), vehicle: water) 122 % of control; under setting [10], 113 % of control; under setting [11], 115 % of control; (dose: 40.0 mg/kg/injection, schedule: Q01DX009 (ip), vehicle: water) 120 % of control; under setting [12], 97 % of control.

`CCNCCCOCC`: the T/C is 104 % of control (dose: 12.5 mg/kg/injection, schedule: Q04DX003 (ip), vehicle: saline); 102 % of control (dose: 25.0 mg/kg/injection, schedule: Q04DX003 (ip), vehicle: saline); 102 % of control (dose: 50.0 mg/kg/injection, schedule: Q04DX003 (ip), vehicle: saline).

For `O=C1CC(C(=O)N2Cc3cc4ccccc4nc3C2)CO1` (configuration not stated), the T/C (dose: 6.25 mg/kg/injection, schedule: Q01DX009 (ip), vehicle: saline with Tween-80) is 111 % of control; the T/C under setting [10] was 115 % of control; the T/C under setting [11] was 113 % of control; the T/C under setting [12] is 109 % of control; the T/C (dose: 100.0 mg/kg/injection, schedule: Q01DX009 (ip), vehicle: saline with Tween-80) is 116 % of control; the T/C (dose: 200.0 mg/kg/injection, schedule: Q01DX009 (ip), vehicle: saline with Tween-80) was 100 % of control.

Regarding `C=C(OC)C(Nc1cc(OC)c(OC)cc1C(=O)OC1CC(O[C@@H]2C(=O)C(NC(=O)OC)=C3/C(=C\CSSSC)[C@]2(O)C#C/C=C\C#C[C@@H]3OC2OC(C)C(NOC3CC(O)C(SC)C(C)O3)C(O)C2OC2CC(OC)C(NCCC)CO2)OC(C)C1O)OC` (some centres not stated), the T/C runs as follows: (dose: 0.1 micrograms/kg/injection, schedule: Q01DX009 (ip), vehicle: methylcellulose (MC)) 178 % of control; (dose: 0.2 micrograms/kg/injection, schedule: Q01DX009 (ip), vehicle: methylcellulose (MC)) 172 % of control; (dose: 0.4 micrograms/kg/injection, schedule: Q01DX009 (ip), vehicle: methylcellulose (MC)) 175 % of control; (dose: 0.4 micrograms/kg/injection, schedule: Q04DX003 (ip), vehicle: methylcellulose (MC)) 160 % of control; (dose: 0.8 micrograms/kg/injection, schedule: Q01DX009 (ip), vehicle: methylcellulose (MC)) 182 % of control; (dose: 1.6 micrograms/kg/injection, schedule: Q01DX009 (ip), vehicle: methylcellulose (MC)) 182 % of control. For the same molecule, the T/C reads like this: (dose: 1.6 micrograms/kg/injection, schedule: Q04DX003 (ip), vehicle: methylcellulose (MC)) 168 % of control; (dose: 3.2 micrograms/kg/injection, schedule: Q04DX003 (ip), vehicle: methylcellulose (MC)) 153 % of control; (dose: 6.4 micrograms/kg/injection, schedule: Q04DX003 (ip), vehicle: methylcellulose (MC)) 106 % of control.

As to `C=CCOCC(O)CN(C)CC1CCCO1` (configuration not stated), the T/C by setting is: (dose: 25.0 mg/kg/injection, schedule: Q01DX009 (ip), vehicle: saline) 103 % of control; under setting [5], 102 % of control; under setting [6], 91 % of control.

`CN1c2c(nc(N)[nH]c2=O)NCC1CCNc1ccc(C(=O)NC(CCC(=O)O)C(=O)O)cc1` (configuration not stated): the T/C (dose: 25.0 mg/kg/injection, schedule: Q01DX009 (ip), vehicle: Klucel (hydroxypropylcellulose) (HPC)) is 106 % of control; the T/C (dose: 50.0 mg/kg/injection, schedule: Q01DX009 (ip), vehicle: Klucel (hydroxypropylcellulose) (HPC)) is 103 % of control; the T/C (dose: 50.0 mg/kg/injection, schedule: Q01DX009 (ip), vehicle: sodium bicarbonate) was 100 % of control; the T/C under setting [2] is 106 % of control; the T/C (dose: 100.0 mg/kg/injection, schedule: Q01DX009 (ip), vehicle: sodium bicarbonate) is 100 % of control; the T/C (dose: 200.0 mg/kg/injection, schedule: Q01DX009 (ip), vehicle: sodium bicarbonate) was 95 % of control. Further, the T/C (dose: 400.0 mg/kg/injection, schedule: Q01DX009 (ip), vehicle: sodium bicarbonate) was 118 % of control.

For the molecule `Cc1c2ccc3ccccc3c2c[n+]2ccccc12`, the T/C (dose: 1.25 mg/kg/injection, schedule: Q01DX009 (ip), vehicle: Klucel (hydroxypropylcellulose) (HPC)) was 98 % of control; the T/C (dose: 2.5 mg/kg/injection, schedule: Q01DX009 (ip), vehicle: Klucel (hydroxypropylcellulose) (HPC)) is 98 % of control; the T/C (dose: 5.0 mg/kg/injection, schedule: Q01DX009 (ip), vehicle: Klucel (hydroxypropylcellulose) (HPC)) is 111 % of control; the T/C (dose: 10.0 mg/kg/injection, schedule: Q01DX009 (ip), vehicle: Klucel (hydroxypropylcellulose) (HPC)) was 108 % of control; the T/C (dose: 20.0 mg/kg/injection, schedule: Q01DX009 (ip), vehicle: Klucel (hydroxypropylcellulose) (HPC)) was 102 % of control.

For `N/N=C(\N)c1nn(C2OC(CO)C(O)C2O)c2ncnc(N)c12` (configuration not stated), the T/C runs as follows: (dose: 40.0 mg/kg/injection, schedule: Q01DX005 (ip), vehicle: saline) 91 % of control; (dose: 80.0 mg/kg/injection, schedule: Q01DX005 (ip), vehicle: saline) 95 % of control; (dose: 160.0 mg/kg/injection, schedule: Q01DX005 (ip), vehicle: saline) 100 % of control.

As for `Nc1nncs1`, the T/C was 104 % of control under setting [8]; 111 % of control (dose: 16.0 mg/kg/injection, schedule: Q01DX009 (ip), vehicle: other); 99 % of control under setting [9]; 106 % of control (dose: 32.0 mg/kg/injection, schedule: Q01DX009 (ip), vehicle: other); 105 % of control (dose: 32.0 mg/kg/injection, schedule: Q01DX009 (ip), vehicle: saline); 104 % of control (dose: 64.0 mg/kg/injection, schedule: Q01DX009 (ip), vehicle: other).

For the molecule `Cc1cccc(C)c1NC(=O)NC(C)C`, the T/C is 87 % of control under setting [2], 115 % of control under setting [3] and 118 % of control under setting [4].

With `CC(C)c1ccc(NC(=O)Nc2cccc3ccccc23)cc1`, the T/C was 100 % of control under setting [2] and 97 % of control under setting [3].

In the case of `C[n+]1c(-c2cccc3ccccc23)c2cc(N)ccc2c2ccccc21`, the T/C was 114 % of control (dose: 1.56 mg/kg/injection, schedule: Q01DX009 (ip), vehicle: water); 106 % of control (dose: 3.12 mg/kg/injection, schedule: Q01DX009 (ip), vehicle: water); 124 % of control (dose: 6.25 mg/kg/injection, schedule: Q01DX009 (ip), vehicle: water); 94 % of control (dose: 12.5 mg/kg/injection, schedule: Q01DX009 (ip), vehicle: water).
